The target of one assay is T1, Serine protease 1 (Bos taurus, UniProt P00760).
T1 sequence (P00760 whole entry): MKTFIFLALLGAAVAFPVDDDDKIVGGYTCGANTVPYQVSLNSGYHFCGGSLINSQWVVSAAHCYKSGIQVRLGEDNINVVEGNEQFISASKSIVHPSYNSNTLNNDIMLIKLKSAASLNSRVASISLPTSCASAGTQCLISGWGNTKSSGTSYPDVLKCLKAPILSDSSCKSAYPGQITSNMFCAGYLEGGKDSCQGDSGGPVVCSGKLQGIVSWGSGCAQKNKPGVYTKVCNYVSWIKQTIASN
Put plainly: ChEBML_212371. The source says: […] rate constant against trypsin

Assay [1] concerns the target Urokinase-type plasminogen activator (Homo sapiens, UniProt P00749). Put plainly: ChEBML_213149. The source says: […] rate constant against Urokinase-type plasminogen activator

Consider `C=C1CC(c2ccc(N=C(N)N)cc2)CC(=O)O1` (stereo not drawn), for which the values for the koff (at Serine protease 1; in assay [1]) were 3.3e-05 s⁻¹ and 0.00015 s⁻¹, respectively.

With `N=C(N)Nc1ccc(C2CC(=O)O/C(=C/I)C2)cc1` (stereo not drawn), the koff (usually a measure of how fast the partners let go of each other) at Serine protease 1 amounted to 0.000333 s⁻¹.
